Like-named read-outs stand apart in the source and are kept apart here.
How the values were obtained:
Assay type in all cases: cell-based
CFTR ΔF508 mutant [1] = target: T1, CFTR ΔF508 mutant (Homo sapiens, UniProt P13569, DEL508-508); experiment: YFP-halide influx assay for the CFTR-ΔF508 mutation, PBS buffer (96 well); settings: CFBE41o- cells, forskolin 10.67 μM
T1 construct: expressed in transfected cells; host or cells: CFBE41o- (adenoviral transduction)
Summary of the method: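 CFBE41o- cells were adenovirally transduced with CFTR ΔF508 and YFP H148Q/I152L, then incubated 24 h at 27 °C or with a CFTR modulator at 37 °C. I⁻-induced fluorescence quenching was recorded over 7 s after injection; response expressed as 1−F/F0, with EC50 from concentration plots.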

CFTR ΔF508 mutant [2] = target: T1, CFTR ΔF508 mutant; experiment: YFP-halide influx assay for the CFTR-ΔF508 mutation (384 well, FDSS/μCell); settings: CFBE41o- cells, CFTR-ΔF508, 1×D-PBS, fluorescence after 36 seconds
Summary of the method: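 Potentiator read-out as 1−F/F0, F taken 36 s after iodide addition, EC50 fitted against compound concentration. Cells: CFBE41o- expressing ΔF508 CFTR plus halide-sensitive YFP via adenovirus, rescued by 27 °C for 24 h or 24 h modulator at 37 °C.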

CFTR G551D mutant = target: T2, CFTR G551D mutant (Homo sapiens, UniProt P13569, G551D); experiment: YFP-halide influx assay for the CFTR-G551D mutation; settings: HEK293 cells, forskolin 10.67 μM
T2 construct: expressed in transfected cells; host or cells: HEK293 (reverse transfection with plasmid)
T2 sequence (P13569 whole entry G551D): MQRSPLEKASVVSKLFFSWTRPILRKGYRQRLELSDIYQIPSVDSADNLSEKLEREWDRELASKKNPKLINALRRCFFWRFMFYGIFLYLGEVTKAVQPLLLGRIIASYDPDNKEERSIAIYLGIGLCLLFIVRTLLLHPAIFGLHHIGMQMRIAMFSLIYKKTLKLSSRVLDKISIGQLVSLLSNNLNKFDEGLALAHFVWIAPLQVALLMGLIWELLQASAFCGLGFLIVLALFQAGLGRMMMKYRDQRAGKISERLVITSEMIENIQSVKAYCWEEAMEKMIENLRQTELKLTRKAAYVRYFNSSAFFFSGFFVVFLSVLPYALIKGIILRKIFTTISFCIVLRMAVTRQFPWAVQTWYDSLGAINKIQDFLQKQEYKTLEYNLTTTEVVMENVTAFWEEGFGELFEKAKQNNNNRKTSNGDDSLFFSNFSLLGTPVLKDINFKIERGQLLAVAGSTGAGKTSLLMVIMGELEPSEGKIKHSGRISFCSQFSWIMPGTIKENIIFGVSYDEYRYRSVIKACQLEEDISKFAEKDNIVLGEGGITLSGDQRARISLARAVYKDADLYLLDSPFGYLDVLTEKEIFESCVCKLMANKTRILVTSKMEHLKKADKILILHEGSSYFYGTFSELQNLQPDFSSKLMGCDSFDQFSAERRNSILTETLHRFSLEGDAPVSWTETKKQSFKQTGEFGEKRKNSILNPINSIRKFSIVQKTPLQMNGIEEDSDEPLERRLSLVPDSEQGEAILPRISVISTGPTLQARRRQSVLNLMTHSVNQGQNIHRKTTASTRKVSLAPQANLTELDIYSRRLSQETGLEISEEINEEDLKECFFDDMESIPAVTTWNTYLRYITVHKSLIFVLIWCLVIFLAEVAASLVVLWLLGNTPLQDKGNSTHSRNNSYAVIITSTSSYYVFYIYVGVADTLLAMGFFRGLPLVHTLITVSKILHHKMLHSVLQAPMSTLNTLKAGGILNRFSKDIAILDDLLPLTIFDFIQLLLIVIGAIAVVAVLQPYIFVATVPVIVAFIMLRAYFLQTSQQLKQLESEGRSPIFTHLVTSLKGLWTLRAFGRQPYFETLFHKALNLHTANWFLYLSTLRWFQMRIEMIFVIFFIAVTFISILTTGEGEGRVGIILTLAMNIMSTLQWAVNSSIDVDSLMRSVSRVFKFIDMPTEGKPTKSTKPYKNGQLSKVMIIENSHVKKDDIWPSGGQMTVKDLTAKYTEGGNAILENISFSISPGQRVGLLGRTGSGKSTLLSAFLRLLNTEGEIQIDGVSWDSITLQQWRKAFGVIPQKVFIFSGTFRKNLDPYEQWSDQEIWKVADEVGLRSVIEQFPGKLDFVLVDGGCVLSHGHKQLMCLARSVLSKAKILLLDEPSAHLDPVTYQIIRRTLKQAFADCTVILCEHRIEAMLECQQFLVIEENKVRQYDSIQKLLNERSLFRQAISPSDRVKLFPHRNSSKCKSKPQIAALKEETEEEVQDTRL
Summary of the method: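 Channel opening potentiation measured as 1−F/F0, where F is YFP fluorescence 7 s after iodide injection and F0 before; EC50 taken from concentration plot. Cells: HEK293 transiently expressing CFTR G551D plus halide-sensitive YFP (H148Q, I152L, F47L), 24 h at 37 °C, 5% CO2.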

CFTR ΔF508 mutant [3] = target: T1, CFTR ΔF508 mutant; experiment: YFP-halide influx assay for the CFTR-ΔF508 mutation, gluconate buffer; settings: CFBE41o- cells, forskolin 10.67 μM
Summary of the method: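 Channel opening is read as the fall in YFP fluorescence over 7 s following iodide injection, expressed as 1-F/F0 and plotted versus compound concentration to derive EC50. Cells used were CFBE41o- expressing adenoviral ΔF508 CFTR and halide-sensitive YFP, rescued by 24 h at 27 °C or 24 h modulator treatment at 37 °C.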

CFTR-G178R = target: T3, CFTR-G178R (Homo sapiens, UniProt P13569, G178R); experiment: YFP-halide influx assay for the CFTR-G178R
T3 construct: expressed in transfected cells
T3 sequence (P13569 whole entry G178R): as the sequence (P13569 whole entry G551D) above, with G178R, D551G counted along it
Text: (§1) The YFP halide influx assay measures the functionality of the cystic fibrosis Transmembrane Conductance regulator (CFTR) channels. The assay is used to evaluate the capacity of compounds to increase the channel opening of existing mutant CFTR channels in the membrane. It makes use of the observation that the yellow fluorescent protein (YFP) variant YFP H148Q, I152L, […] has its fluorescence substantially quenched by halide ions like Cl^− and I^−. (Galietta, Haggie, & Verkman, 2001)
(§2) For this purpose, HEK293-cells are seeded in 96 well plates. During seeding, the cells are reverse-transfected with plasmid vectors that direct the expression of the CFTR G551D mutant and of the YFP reporter. Cells are incubated at 37° C., 5% CO2 for 24 hours so as to allow for sufficient expression of the CFTR protein.
(§3) The I^−-induced quenching of fluorescence is recorded immediately after injection of I^− for 7 seconds. The capacity of a compound to increase the channel opening is directly correlated with the decrease in fluorescence, and is expressed as (1-(fluorescence after 7 seconds (F)/fluorescence before injection (F0))) and an EC50 can be derived from a (1-F/F0) vs compound concentration plot.
(§4) Similar YHA assays were developed for other channel gating defective or channel conductance defective CFTR mutants to determine effect of compound on channel activity. Examples of mutants are G178R, G1349D, S549N, R117H, R334W. This assay is also used for additional class I CFTR mutants, including G542X, W1282X; class II mutants including N1303K, and for class III mutants including S1251N.

CFTR-S549N = target: T4, CFTR-S549N (Homo sapiens, UniProt P13569, S549N); experiment: YFP-halide influx assay for the CFTR-S549N
T4 construct: expressed in transfected cells
T4 sequence (P13569 whole entry S549N): as the sequence (P13569 whole entry G551D) above, with S549N, D551G counted along it
Text: as §1, §2, §3, §4

CFTR-G1349D = target: T5, CFTR-G1349D (Homo sapiens, UniProt P13569, G1349D); experiment: YFP-halide influx assay for the CFTR-G1349D
T5 construct: expressed in transfected cells
T5 sequence (P13569 whole entry G1349D): as the sequence (P13569 whole entry G551D) above, with D551G, G1349D counted along it
Text: as §1, §2, §3, §4

CFTR-R117H = target: T6, CFTR-R117H (Homo sapiens, UniProt P13569, R117H); experiment: YFP-halide influx assay for the CFTR-R117H
T6 construct: expressed in transfected cells
T6 sequence (P13569 whole entry R117H): as the sequence (P13569 whole entry G551D) above, with R117H, D551G counted along it
Text: as §1, §2, §3, §4

T1 sequence (P13569 with tags, fused parts or gaps DEL508-508): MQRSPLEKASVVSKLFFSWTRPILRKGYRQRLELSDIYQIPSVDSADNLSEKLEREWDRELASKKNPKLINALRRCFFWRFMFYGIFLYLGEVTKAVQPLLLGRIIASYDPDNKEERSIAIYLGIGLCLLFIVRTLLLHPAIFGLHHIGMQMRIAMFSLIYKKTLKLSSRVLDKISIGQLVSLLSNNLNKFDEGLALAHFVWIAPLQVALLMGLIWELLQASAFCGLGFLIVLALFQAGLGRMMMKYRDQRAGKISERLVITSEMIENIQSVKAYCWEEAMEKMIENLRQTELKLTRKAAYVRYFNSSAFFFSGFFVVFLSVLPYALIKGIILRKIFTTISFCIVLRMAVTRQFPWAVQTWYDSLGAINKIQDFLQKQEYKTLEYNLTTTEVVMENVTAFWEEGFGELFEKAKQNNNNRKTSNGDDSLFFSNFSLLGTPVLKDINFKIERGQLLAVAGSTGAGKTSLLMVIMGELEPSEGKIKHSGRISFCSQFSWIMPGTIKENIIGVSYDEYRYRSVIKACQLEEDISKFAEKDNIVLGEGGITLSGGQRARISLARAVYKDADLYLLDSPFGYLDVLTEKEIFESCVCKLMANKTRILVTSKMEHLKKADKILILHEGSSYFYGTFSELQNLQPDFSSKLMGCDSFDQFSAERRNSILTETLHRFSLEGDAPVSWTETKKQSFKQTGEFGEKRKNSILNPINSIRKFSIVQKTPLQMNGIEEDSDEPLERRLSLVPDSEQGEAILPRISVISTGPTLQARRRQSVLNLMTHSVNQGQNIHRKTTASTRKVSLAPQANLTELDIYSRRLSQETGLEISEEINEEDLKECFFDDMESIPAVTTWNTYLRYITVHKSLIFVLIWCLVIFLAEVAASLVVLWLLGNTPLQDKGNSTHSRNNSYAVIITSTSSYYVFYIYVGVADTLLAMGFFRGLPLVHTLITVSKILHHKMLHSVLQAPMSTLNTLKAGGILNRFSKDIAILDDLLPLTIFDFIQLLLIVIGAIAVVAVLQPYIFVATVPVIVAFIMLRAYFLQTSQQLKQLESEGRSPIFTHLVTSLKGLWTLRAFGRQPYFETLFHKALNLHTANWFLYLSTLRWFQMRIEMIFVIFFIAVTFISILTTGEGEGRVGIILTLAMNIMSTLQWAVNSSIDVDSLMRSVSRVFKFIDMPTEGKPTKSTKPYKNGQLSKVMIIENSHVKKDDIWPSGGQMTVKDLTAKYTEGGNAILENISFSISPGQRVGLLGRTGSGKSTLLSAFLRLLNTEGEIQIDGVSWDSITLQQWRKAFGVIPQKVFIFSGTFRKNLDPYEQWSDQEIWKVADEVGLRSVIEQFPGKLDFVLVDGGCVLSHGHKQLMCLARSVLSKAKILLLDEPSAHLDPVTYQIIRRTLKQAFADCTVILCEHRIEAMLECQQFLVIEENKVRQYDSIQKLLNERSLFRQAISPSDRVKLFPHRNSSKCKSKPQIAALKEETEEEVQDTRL

Compound	EC50 (CFTR ΔF508 mutant [1]) [nM]	EC50 (CFTR ΔF508 mutant [2]) [nM]	EC50 (CFTR G551D mutant) [nM]	EC50 (CFTR ΔF508 mutant [3]) [nM]	EC50 (CFTR-G178R) [nM]	EC50 (CFTR-S549N) [nM]	EC50 (CFTR-G1349D) [nM]	EC50 (CFTR-R117H) [nM]	EC50 (CFTR-G1349D; class symbol) [nM]	EC50 (CFTR G551D mutant; class symbol) [nM]
NC(=O)c1cc(S(=O)(=O)c2ccc(F)cc2)sc1NC(=O)C1(O)CC1 [Compound 224, 5-(4-fluorophenylsulfonyl)-2-(1-hydroxycyclopropanecarboxamido) thiophene-3-carboxamide]	54.1	35	511	103						
NC(=O)c1cc(S(=O)(=O)c2ccc(F)cc2)sc1NC(=O)C1(O)CCC1 [Compound 226, 5-(4-fluorophenylsulfonyl)-2-(1-hydroxycyclobutanecarboxamido) thiophene-3-carboxamide]	36.9	33.8	540	42.2						
NC(=O)c1cc(S(=O)(=O)c2ccccc2OC(F)(F)F)sc1NC(=O)C1(CO)CC1 [Compound 320, 2-[(1-Hydroxymethyl-cyclopropanecarbonyl)-amino]-5-(2-trifluoromethoxy-benzenesulfonyl)-thiophene-3-carboxylic acid amide]		12.9	97.3		56.2	131	31.6	87.7		
CC(C)(O)C(=O)Nc1sc(S(=O)(=O)c2cc(F)ccc2Br)cc1C(N)=O [Compound 323, 5-(2-Bromo-5-fluoro-benzenesulfonyl)-2-(2-hydroxy-2-methyl-propionylamino)-thiophene-3-carboxylic acid amide]		9.4	227		189	1510	459	342		
CC(O)C(=O)Nc1sc(S(=O)(=O)c2ccc(F)cc2C(F)(F)F)cc1C(N)=O (stereo not shown) [Compound 325, 5-[4-fluoro-2-(trifluoromethyl)phenyl] sulfonyl-2-(2-hydroxypropanoylamino) thiophene-3-carboxamide]		11.1	2790		1880	2140	2570	793		
CC(O)C(=O)Nc1sc(S(=O)(=O)c2ccc(F)cc2Cl)cc1C(N)=O (stereo not shown) [Compound 329, 5-(2-chloro-4-fluoro-phenyl) sulfonyl-2-(2-hydroxypropanoylamino) thiophene-3-carboxamide]		23.2	1400		1680	2690	2050	851		
C[C@H](O)C(=O)Nc1sc(S(=O)(=O)c2ccc(OC(F)(F)F)cc2)cc1C(N)=O [Compound 331, 2-[[(2S)-2-hydroxypropanoyl]amino]-5-[4-(trifluoromethoxy)phenyl] sulfonyl-thiophene-3-carboxamide]		8	562		67.7	522	117	95		
CC(O)C(=O)Nc1sc(S(=O)(=O)c2cc(F)ccc2Cl)cc1C(N)=O (stereo not shown) [Compound 333, 5-(2-chloro-5-fluoro-phenyl)sulfonyl-2-(2-hydroxypropanoylamino) thiophene-3-carboxamide]		12.6	754		620	547	847	467		
CC(O)C(=O)Nc1sc(S(=O)(=O)c2cc(F)ccc2CC(F)(F)F)cc1C(N)=O (stereo not shown) [Compound 334, 5-[5-fluoro-2-(2,2,2-trifluoroethyl)phenyl] sulfonyl-2-(2-hydroxypropanoylamino) thiophene-3-carboxamide]		3.7	150		44.5	336	47.7	118		
CC(C)(O)C(=O)Nc1sc(S(=O)(=O)c2cc(F)ccc2Cl)cc1C(N)=O [Compound 337, 5-(2-chloro-5-fluoro-phenyl)sulfonyl-2-[(2-hydroxy-2-methyl-propanoyl)amino] thiophene-3-carboxamide]		5.5	879		27.2	107	48.7	56.3		

Second part, the compound after the results:

EC50 (CFTR ΔF508 mutant [1]) [nM]	EC50 (CFTR ΔF508 mutant [2]) [nM]	EC50 (CFTR G551D mutant) [nM]	EC50 (CFTR ΔF508 mutant [3]) [nM]	EC50 (CFTR-G178R) [nM]	EC50 (CFTR-S549N) [nM]	EC50 (CFTR-G1349D) [nM]	EC50 (CFTR-R117H) [nM]	EC50 (CFTR-G1349D; class symbol) [nM]	EC50 (CFTR G551D mutant; class symbol) [nM]	Compound
	9.55	635		123	188	223	49.3			CC(CO)C(=O)Nc1sc(S(=O)(=O)c2ccc(F)cc2Cl)cc1C(N)=O (stereo not shown) [Compound 360, 5-(2-chloro-4-fluoro-phenyl)sulfonyl-2-[(3-hydroxy-2-methyl-propanoyl)amino] thiophene-3-carboxamide]
	28.5	491		69	221	320	90.6			CC(C)(O)C(=O)Nc1sc(S(=O)(=O)c2ccc(C(F)(F)F)cn2)cc1C(N)=O [Compound 363, 2-[(2-hydroxy-2-methyl-propanoyl)amino]-5-[[5-(trifluoromethyl)-2-pyridyl]sulfonyl]thiophene-3-carboxamide]
	17.3	321		32.7	55.5	100	33.7			CC(O)C(=O)Nc1sc(S(=O)(=O)c2ccc(C(F)(F)F)cc2F)cc1C(N)=O (stereo not shown) [Compound 368, 5-[2-fluoro-4-(trifluoromethyl)phenyl]sulfonyl-2-(2-hydroxypropanoylamino) thiophene-3-carboxamide]
	11.6	691		74.6	445	195	142			CC(CO)C(=O)Nc1sc(S(=O)(=O)c2ccc(C(F)(F)F)cc2)cc1C(N)=O (stereo not shown) [Compound 369, 2-[(3-hydroxy-2-methyl-propanoyl)amino]-5-[4-(trifluoromethyl)phenyl] sulfonyl-thiophene-3-carboxamide]
	13.2	100		19.7	70.5	31.9	46.1			COc1ccc(OC(F)(F)F)c(S(=O)(=O)c2cc(C(N)=O)c(NC(=O)C(C)(C)O)s2)c1 [Compound 373, 2-[(2-hydroxy-2-methyl-propanoyl)amino]-5-[5-methoxy-2-(trifluoromethoxy)phenyl]sulfonyl-thiophene-3-carboxamide]
	58.3	1330		610	1830	807	365			CC(C)(O)C(=O)Nc1sc(S(=O)(=O)c2ccc(OC(F)(F)F)cn2)cc1C(N)=O [Compound 374, 2-[(2-hydroxy-2-methyl-propanoyl)amino]-5-[[5-(trifluoromethoxy)-2-pyridyl]sulfonyl] thiophene-3-carboxamide]
	7.53	681		93.4	199	146	253			CC(C)(O)C(=O)Nc1sc(S(=O)(=O)c2ccc(OC(F)(F)F)cc2F)cc1C(N)=O [Compound 375, 5-[2-fluoro-4-(trifluoromethoxy)phenyl] sulfonyl-2-[(2-hydroxy-2-methyl-propanoyl)amino] thiophene-3-carboxamide]
	6.24				121		264	> 1000	> 1000	Cc1c(S(=O)(=O)c2ccc(OC(F)(F)F)cc2)sc(NC(=O)C(C)(C)O)c1C(N)=O [Compound 437, 2-[(2-hydroxy-2-methyl-propanoyl)amino]-4-methyl-5-[4-(trifluoromethoxy)phenyl]sulfonyl-thiophene-3-carboxamide]

Source: patent publication US9382254B2, “Compounds and pharmaceutical compositions thereof for the treatment of cystic fibrosis” (Galapagos NV, priority 2013, dated 2016)
